Laboratory results published in ChEMBL document CHEMBL4177526, “Discovery and structure activity relationship of the first potent cryptosporidium FIKK kinase inhibitor” (Bioorg Med Chem, 2017).

What was measured:
[1] = target: Serine/threonine-protein kinase STK11 (Homo sapiens) (UniProt Q15831); experiment: Inhibition of human LKB1 (1 to 433 residues) assessed as residual activity at 500 nM in presence of 33P-ATP by filter binding assay relative to control
[2] = target: Receptor-interacting serine/threonine-protein kinase 2 (Homo sapiens) (UniProt O43353); experiment: Inhibition of human RIPK2 (2 to 311 residues) assessed as residual activity at 500 nM in presence of 33P-ATP by filter binding assay relative to control
Sequence of Receptor-interacting serine/threonine-protein kinase 2 (Homo sapiens) (O43353 whole entry, the tested form may be a part): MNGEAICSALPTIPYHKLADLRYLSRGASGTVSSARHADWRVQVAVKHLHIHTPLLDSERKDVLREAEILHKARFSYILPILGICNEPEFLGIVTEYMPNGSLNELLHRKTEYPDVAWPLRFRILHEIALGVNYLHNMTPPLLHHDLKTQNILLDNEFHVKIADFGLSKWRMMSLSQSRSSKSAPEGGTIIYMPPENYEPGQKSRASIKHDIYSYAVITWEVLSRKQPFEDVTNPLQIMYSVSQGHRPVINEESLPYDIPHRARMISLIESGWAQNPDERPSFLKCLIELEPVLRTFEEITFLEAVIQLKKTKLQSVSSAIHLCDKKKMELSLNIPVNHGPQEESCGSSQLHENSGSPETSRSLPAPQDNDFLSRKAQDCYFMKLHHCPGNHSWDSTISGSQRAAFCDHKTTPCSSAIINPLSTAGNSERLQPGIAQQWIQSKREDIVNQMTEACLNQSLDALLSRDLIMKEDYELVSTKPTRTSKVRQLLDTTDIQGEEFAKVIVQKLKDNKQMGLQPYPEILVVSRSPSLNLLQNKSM

[3] = target: Serine/threonine-protein kinase 16 (Homo sapiens) (UniProt O75716); experiment: Inhibition of human MPSK1 (1 to 305 residues) assessed as residual activity at 500 nM in presence of 33P-ATP by filter binding assay relative to control
Sequence of Serine/threonine-protein kinase 16 (Homo sapiens) (O75716 whole entry, the tested form may be a part): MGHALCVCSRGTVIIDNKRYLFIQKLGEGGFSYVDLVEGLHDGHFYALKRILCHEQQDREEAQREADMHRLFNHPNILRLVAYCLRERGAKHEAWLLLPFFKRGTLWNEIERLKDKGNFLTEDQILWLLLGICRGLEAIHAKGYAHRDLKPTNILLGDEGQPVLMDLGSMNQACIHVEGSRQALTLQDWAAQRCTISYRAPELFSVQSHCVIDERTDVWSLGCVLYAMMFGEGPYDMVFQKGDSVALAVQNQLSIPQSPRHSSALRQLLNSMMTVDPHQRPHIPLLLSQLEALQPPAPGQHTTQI

[4] = target: Dual specificity mitogen-activated protein kinase kinase 6 (Homo sapiens) (UniProt P52564); experiment: Inhibition of human MKK6 (2 to 334 residues) assessed as residual activity at 500 nM in presence of 33P-ATP by filter binding assay relative to control
Sequence of Dual specificity mitogen-activated protein kinase kinase 6 (Homo sapiens) (P52564 whole entry, the tested form may be a part): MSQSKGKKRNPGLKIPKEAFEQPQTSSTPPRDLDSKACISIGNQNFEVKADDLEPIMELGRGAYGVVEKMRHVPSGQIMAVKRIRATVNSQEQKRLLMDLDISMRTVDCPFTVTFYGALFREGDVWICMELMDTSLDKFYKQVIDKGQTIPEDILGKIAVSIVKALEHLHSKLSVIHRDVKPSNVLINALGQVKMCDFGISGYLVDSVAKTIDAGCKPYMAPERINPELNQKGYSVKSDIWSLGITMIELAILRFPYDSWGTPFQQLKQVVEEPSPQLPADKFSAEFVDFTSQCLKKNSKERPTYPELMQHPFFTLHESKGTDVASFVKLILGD

[5] = target: Inhibitor of nuclear factor kappa-B kinase subunit beta (Homo sapiens) (UniProt O14920); experiment: Inhibition of human IKKbeta (1 to 736 residues) assessed as residual activity at 500 nM in presence of 33P-ATP by filter binding assay relative to control
[6] = target: Mitogen-activated protein kinase 12 (Homo sapiens) (UniProt P53778); experiment: Inhibition of human p38gamma (1 to 367 residues) assessed as residual activity at 500 nM in presence of 33P-ATP by filter binding assay relative to control
Sequence of Mitogen-activated protein kinase 12 (Homo sapiens) (P53778 whole entry, the tested form may be a part): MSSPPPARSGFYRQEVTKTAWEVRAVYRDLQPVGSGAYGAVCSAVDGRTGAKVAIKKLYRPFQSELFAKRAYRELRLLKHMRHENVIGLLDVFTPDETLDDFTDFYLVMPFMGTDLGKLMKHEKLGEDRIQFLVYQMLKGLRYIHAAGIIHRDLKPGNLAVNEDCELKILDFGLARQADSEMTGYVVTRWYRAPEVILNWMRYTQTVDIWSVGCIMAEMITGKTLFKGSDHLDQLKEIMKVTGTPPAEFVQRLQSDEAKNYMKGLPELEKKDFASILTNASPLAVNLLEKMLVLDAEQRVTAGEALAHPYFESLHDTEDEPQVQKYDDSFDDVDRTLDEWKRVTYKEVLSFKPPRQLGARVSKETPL

[7] = target: Mitogen-activated protein kinase kinase kinase 5 (Homo sapiens) (UniProt Q99683); experiment: Inhibition of human ASK1 (670 to 950 residues) assessed as residual activity at 500 nM in presence of 33P-ATP by filter binding assay relative to control
[8] = target: Mitogen-activated protein kinase 10 (Homo sapiens) (UniProt P53779); experiment: Inhibition of human JNK3 (40 to 422 residues) assessed as residual activity at 500 nM in presence of 33P-ATP by filter binding assay relative to control
Sequence of Mitogen-activated protein kinase 10 (Homo sapiens) (P53779 whole entry, the tested form may be a part): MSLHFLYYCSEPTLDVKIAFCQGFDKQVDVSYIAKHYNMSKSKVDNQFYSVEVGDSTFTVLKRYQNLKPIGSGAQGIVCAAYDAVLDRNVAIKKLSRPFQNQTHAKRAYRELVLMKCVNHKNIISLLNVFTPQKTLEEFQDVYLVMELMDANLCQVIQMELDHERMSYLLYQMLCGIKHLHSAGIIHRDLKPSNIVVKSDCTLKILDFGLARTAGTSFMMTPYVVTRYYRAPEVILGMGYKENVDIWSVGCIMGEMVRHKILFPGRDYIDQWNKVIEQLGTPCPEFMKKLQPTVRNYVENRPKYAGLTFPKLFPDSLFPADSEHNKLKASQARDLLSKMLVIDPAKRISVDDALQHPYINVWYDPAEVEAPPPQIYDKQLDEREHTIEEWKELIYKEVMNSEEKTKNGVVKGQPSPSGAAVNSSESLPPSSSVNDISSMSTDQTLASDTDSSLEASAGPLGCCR

[9] = target: Mitogen-activated protein kinase kinase kinase 1 (Homo sapiens) (UniProt Q13233); experiment: Inhibition of human MEKK1 (877 to 1563 residues) assessed as residual activity at 500 nM in presence of 33P-ATP by filter binding assay relative to control
Sequence of Mitogen-activated protein kinase kinase kinase 1 (Homo sapiens) (Q13233 whole entry, the tested form may be a part): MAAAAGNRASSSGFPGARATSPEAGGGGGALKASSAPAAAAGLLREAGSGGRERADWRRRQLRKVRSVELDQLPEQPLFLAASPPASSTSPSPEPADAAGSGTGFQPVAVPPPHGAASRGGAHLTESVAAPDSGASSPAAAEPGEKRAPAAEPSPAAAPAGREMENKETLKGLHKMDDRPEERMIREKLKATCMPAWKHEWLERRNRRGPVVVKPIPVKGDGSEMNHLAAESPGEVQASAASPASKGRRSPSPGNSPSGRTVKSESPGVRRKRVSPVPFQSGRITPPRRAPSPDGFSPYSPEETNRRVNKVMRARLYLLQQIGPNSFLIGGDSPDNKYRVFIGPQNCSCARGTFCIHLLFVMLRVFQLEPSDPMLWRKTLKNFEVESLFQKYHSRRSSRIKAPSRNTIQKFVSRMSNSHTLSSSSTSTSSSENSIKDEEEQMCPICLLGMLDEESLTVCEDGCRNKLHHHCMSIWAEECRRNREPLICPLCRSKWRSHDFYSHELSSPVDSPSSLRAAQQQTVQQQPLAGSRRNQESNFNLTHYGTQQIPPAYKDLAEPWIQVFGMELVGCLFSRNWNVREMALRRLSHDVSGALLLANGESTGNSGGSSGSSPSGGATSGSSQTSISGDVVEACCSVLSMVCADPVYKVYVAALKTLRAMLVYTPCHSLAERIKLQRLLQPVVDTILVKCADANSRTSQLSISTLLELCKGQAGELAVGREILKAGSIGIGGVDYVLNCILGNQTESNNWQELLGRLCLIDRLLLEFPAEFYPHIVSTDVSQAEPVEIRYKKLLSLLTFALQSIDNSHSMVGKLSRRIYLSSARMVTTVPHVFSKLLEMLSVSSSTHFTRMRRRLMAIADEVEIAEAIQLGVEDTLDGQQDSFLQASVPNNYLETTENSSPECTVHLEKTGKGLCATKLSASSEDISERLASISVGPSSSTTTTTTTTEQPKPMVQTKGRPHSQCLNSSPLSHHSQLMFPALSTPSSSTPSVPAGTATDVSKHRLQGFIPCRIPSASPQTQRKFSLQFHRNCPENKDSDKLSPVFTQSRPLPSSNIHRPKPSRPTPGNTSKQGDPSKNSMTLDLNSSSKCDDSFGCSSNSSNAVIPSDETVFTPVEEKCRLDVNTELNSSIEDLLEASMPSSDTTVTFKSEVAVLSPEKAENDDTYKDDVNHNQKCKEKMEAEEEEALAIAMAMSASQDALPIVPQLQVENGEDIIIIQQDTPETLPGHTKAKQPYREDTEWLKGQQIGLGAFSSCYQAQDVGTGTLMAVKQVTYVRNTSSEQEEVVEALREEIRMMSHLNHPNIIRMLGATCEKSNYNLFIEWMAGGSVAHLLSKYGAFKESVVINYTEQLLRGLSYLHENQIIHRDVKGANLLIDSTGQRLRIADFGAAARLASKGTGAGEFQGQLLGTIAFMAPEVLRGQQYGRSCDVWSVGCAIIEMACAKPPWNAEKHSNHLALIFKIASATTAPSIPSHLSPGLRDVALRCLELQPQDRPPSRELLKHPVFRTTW

[10] = test system: TGF-beta receptor type-1 (Homo sapiens), P36897 [T204D]; experiment: Inhibition of human TGFbetaR1 T204D mutant (200 to 501 residues) assessed as residual activity at 500 nM in presence of 33P-ATP by filter binding assay relative to control
Sequence of TGF-beta receptor type-1 (Homo sapiens), P36897 [T204D] (P36897 whole entry T204D, the tested form may be a part): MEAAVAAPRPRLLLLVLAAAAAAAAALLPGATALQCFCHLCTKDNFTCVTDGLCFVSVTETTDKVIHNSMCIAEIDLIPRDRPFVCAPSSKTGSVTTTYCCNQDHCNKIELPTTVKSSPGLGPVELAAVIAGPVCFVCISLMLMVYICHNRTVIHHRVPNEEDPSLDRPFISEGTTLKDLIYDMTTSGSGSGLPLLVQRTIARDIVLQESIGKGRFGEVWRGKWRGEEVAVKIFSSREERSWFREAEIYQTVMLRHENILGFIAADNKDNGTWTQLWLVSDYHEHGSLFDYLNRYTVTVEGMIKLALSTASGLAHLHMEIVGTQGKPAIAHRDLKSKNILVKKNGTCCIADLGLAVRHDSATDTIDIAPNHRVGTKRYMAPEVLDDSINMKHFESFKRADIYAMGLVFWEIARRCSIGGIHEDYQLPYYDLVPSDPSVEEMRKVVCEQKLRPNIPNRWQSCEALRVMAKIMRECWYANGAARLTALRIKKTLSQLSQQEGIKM

[11] = target: Death-associated protein kinase 1 (Homo sapiens) (UniProt P53355); experiment: Inhibition of human DAPK1 (1 to 363 residues) assessed as residual activity at 500 nM in presence of 33P-ATP by filter binding assay relative to control
[12] = target: Calcium/calmodulin-dependent protein kinase type 1 (Homo sapiens) (UniProt Q14012); experiment: Inhibition of human CAMK1 (2 to 369 residues) assessed as residual activity at 500 nM in presence of 33P-ATP by filter binding assay relative to control
[13] = target: Serine/threonine-protein kinase PLK1 (Homo sapiens) (UniProt P53350); experiment: Inhibition of human PLK1 (1 to 603 residues) assessed as residual activity at 500 nM in presence of 33P-ATP by filter binding assay relative to control
[14] = target: Dual specificity mitogen-activated protein kinase kinase 2 (Homo sapiens) (UniProt P36507); experiment: Inhibition of human MKK2 (2 to 400 residues) assessed as residual activity at 500 nM in presence of 33P-ATP by filter binding assay relative to control
[15] = target: Serine/threonine-protein kinase 26 (Homo sapiens) (UniProt Q9P289); experiment: Inhibition of human MST4 (1 to 416 residues) assessed as residual activity at 500 nM in presence of 33P-ATP by filter binding assay relative to control
[16] = target: Homeodomain-interacting protein kinase 1 (Homo sapiens) (UniProt Q86Z02); experiment: Inhibition of human HIPK1 (158 to 555 residues) assessed as residual activity at 500 nM in presence of 33P-ATP by filter binding assay relative to control
[17] = target: Receptor-interacting serine/threonine-protein kinase 2 (Homo sapiens) (UniProt O43353); experiment: Inhibition of human RIPK2 (2 to 311 residues) at 500 nM in presence of 33P-ATP by filter binding assay relative to control
[18] = target: Maternal embryonic leucine zipper kinase (Homo sapiens) (UniProt Q14680); experiment: Inhibition of human MELK (2 to 651 residues) assessed as residual activity at 500 nM in presence of 33P-ATP by filter binding assay relative to control
[19] = target: Serine/threonine-protein kinase pim-3 (Homo sapiens) (UniProt Q86V86); experiment: Inhibition of human PIM3 (2 to 326 residues) assessed as residual activity at 500 nM in presence of 33P-ATP by filter binding assay relative to control
[20] = target: Ephrin type-B receptor 1 (Homo sapiens) (UniProt P54762); experiment: Inhibition of human EPHB1 (565 to 984 residues) assessed as residual activity at 500 nM in presence of 33P-ATP by filter binding assay relative to control
[21] = target: Mitogen-activated protein kinase 15 (Homo sapiens) (UniProt Q8TD08); experiment: Inhibition of human ERK8 (2 to 544 residues) assessed as residual activity at 500 nM in presence of 33P-ATP by filter binding assay relative to control
Sequence of Mitogen-activated protein kinase 15 (Homo sapiens) (Q8TD08 whole entry, the tested form may be a part): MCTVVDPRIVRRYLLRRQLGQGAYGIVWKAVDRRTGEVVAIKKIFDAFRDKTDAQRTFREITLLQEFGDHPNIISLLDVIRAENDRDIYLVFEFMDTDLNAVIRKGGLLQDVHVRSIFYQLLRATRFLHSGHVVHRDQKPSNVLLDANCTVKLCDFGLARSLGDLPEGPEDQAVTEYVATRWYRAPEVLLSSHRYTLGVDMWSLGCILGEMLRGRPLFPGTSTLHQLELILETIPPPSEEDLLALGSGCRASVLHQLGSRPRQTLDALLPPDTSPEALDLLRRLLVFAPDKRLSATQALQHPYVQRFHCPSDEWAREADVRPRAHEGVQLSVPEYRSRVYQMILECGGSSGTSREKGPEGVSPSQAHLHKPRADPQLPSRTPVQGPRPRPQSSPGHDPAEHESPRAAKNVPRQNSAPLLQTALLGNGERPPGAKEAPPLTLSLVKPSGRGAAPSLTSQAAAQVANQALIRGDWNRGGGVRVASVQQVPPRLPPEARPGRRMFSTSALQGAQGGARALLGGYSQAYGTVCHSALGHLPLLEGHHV

[22] = target: Tyrosine-protein kinase CSK (Homo sapiens) (UniProt P41240); experiment: Inhibition of human CSK (1 to 450 residues) assessed as residual activity at 500 nM in presence of 33P-ATP by filter binding assay relative to control
[23] = target: Dual specificity mitogen-activated protein kinase kinase 1 (Homo sapiens) (UniProt Q02750); experiment: Inhibition of human MKK1 (2 to 393 residues) assessed as residual activity at 500 nM in presence of 33P-ATP by filter binding assay relative to control
[24] = target: Receptor tyrosine-protein kinase erbB-4 (Homo sapiens) (UniProt Q15303); experiment: Inhibition of human HER4 (706 to 991 residues) assessed as residual activity at 500 nM in presence of 33P-ATP by filter binding assay relative to control
[25] = Ratio of EC50 for antiparasitic activity against Cryptosporidium parvum Iowa oocysts infected in human HCT8 cells to IC50 for recombinant Cryptosporidium parvum FIKK; assay type: functional, cell-based
[26] = target: Dual specificity protein kinase CLK2 (Homo sapiens) (UniProt P49760); experiment: Inhibition of human CLK2 (138 to 499 residues) assessed as residual activity at 500 nM in presence of 33P-ATP by filter binding assay relative to control

Sequence of Serine/threonine-protein kinase STK11 (Homo sapiens) (Q15831 whole entry, the tested form may be a part): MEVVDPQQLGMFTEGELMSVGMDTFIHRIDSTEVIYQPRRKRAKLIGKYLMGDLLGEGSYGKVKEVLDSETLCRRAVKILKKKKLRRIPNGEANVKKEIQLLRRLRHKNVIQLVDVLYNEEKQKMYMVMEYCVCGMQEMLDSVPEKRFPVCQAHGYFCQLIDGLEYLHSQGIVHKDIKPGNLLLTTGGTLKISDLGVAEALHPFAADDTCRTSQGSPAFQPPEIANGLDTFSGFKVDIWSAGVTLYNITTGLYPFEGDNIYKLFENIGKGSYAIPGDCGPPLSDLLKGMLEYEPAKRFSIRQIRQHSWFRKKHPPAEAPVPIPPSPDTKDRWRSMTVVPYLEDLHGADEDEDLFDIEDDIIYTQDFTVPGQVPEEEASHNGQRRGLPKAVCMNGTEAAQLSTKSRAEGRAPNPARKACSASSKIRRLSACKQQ

- Activity [1]: 101%
- Activity [2]: 30%
- Activity [3]: 99%
- Activity [4]: 96%
- Activity [5]: 114%
- Activity [6]: 116%
- Activity [7]: 106%
- Activity [8]: 90%
- Activity [9]: 119%
- Activity [10]: 14%
- Activity [12]: 112%
- Activity [13]: 107%
- Activity [14]: 112%
- Activity [15]: 113%
- Activity [16]: 106%
- inhibition [17]: 70%
- Activity [18]: 91%
- Activity [19]: 91%
- Activity [20]: 110%
- Activity [22]: 99%
- Activity [23]: 115%
- Activity [24]: 60%
- Activity [26]: 76%
SMILES: Cc1cccc(-c2nc(N)sc2-c2ccc3ncccc3n2)c1
- Activity [11]: 96%
- Activity [21]: 123%
- Ratio [25]: 12800
